# From US9301951B2 (Ardelyx, Inc., priority 2010, dated 2016)
# Biological target: T1, rat NaP2b (SLC34A2) (Rattus norvegicus, UniProt Q9JJ09)
# T1 construct: host or cells: HEK293
# T1 sequence (Q9JJ09 1-695): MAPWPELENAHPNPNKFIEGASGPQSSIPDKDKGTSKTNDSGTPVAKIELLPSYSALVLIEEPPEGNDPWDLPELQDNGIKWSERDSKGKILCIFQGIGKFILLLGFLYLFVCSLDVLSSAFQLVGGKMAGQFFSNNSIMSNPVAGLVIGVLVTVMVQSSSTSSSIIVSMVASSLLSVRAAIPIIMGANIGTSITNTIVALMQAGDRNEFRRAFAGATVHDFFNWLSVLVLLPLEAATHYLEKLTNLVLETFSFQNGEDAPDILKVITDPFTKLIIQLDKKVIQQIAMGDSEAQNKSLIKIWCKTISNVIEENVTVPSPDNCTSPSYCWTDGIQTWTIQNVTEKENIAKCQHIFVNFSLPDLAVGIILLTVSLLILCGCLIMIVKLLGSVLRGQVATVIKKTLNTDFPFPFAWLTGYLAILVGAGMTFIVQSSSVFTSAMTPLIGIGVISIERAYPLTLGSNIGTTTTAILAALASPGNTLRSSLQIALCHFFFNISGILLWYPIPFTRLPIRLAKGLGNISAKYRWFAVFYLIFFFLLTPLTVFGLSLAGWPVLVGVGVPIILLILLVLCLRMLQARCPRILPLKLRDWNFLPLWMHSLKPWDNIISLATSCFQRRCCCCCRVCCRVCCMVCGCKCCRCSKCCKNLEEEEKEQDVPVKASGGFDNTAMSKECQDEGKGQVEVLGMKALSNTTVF
# Assay: Inhibition of NaP2b-mediated Pi (33P) uptake in transfected HEK293 cells, rat NaP2b
# Assay type: cell-based
# Conditions: HEK293 cells transfected with rat NaP2b, 100 uM phosphate, 0.1 nM to 30 uM, read-out: pIC50 range for rat Nap2b (converted)
# Procedure: HEK293 cells were obtained from the American Type Culture collection and propagated per their instructions. Expression clones for rat and human NaP2b (SLC34A2) were obtained from Open Biosystems (Catalog numbers MRN1768-9510282, and MHS1010-99823026, respectively). The sequence of the human protein was mutated to insert a threonine after residue 37, and to introduce a N39D mutation.
# Cells were seeded into 96-well plates at 25,000 cells/well and cultured overnight. Lipofectamine 2000 (Invitrogen) was used to introduce the NaP2b cDNA, and the cells were allowed to approach confluence during a second overnight incubation. […] Cells were then overlayed with either choline uptake buffer or sodium uptake buffer (14 mM Tris, 137 mM sodium chloride, 5.4 mM KCl, 2.8 mM CaCl2, 1.2 mM MgSO4, 100 uM KH2PO4, PiT-silencing agent, 1 mg/mL Bovine Serum Albumin, pH 7.4) containing 6-9 uCi/mL ^33P orthophosphoric acid (Perkin Elmer) and test compound. Each compound was tested at twelve concentrations ranging from 0.1 nM to 30 uM. Assays were run in duplicate.
# Cells were lysed by addition of 20 μL 0.1% Tween 80 followed by 100 μL scintillation fluid, and counted using a TopCount (Perkin Elmer).
# pIC50 (the negative log of the […]) values of the test compounds were calculated using GraphPad Prism.
row,SMILES,IC50 [µM]
1,"CCOc1ccc(NC(=O)c2cccc(CSCCC(=O)O)c2)c(-c2cc(C(=O)NCc3cccc(C(F)(F)F)c3)ccn2)c1 [Example 29, 3-((3-((4-Ethoxy-2-(4-((3-(trifluoromethyl)benzyl)carbamoyl)pyridin-2-yl)phenyl)carbamoyl)benzyl)thio)propanoic acid]",1 to 7.94
2,"COc1ccc(NC(=O)c2cccc(CSCCC(=O)O)c2)c(-c2cc(C(=O)NCc3cccc(C(F)(F)F)c3)ccn2)c1 [Example 30, 3-((3-((4-Methoxy-2-(4-((3-(trifluoromethyl)benzyl)carbamoyl)pyridin-2-yl)phenyl)carbamoyl)benzyl)thio)propanoic acid]",1 to 7.94
3,"COC1CCN(c2ccc(NC(=O)c3cccc(CSCCC(=O)O)c3)c(-c3cc(C(=O)NCc4cccc(C(F)(F)F)c4)ccn3)c2)CC1 [Example 31, 3-((3-((4-(4-Methoxypiperidin-1-yl)-2-(4-((3-(trifluoromethyl)benzyl)carbamoyl)-pyridin-2-yl)phenyl)carbamoyl)benzyl)thio)propanoic acid]",10 to 31.6
4,O=C(O)CCSCc1cccc(C(=O)Nc2ccc(OCC(F)(F)F)cc2-c2cc(C(=O)NCc3cccc(C(F)(F)F)c3)ccn2)c1 [Example 32],10 to 31.6
5,CC(C)COc1ccc(NC(=O)c2cccc(CSCCC(=O)O)c2)c(-c2cc(C(=O)NCc3cccc(C(F)(F)F)c3)ccn2)c1 [Example 33],10 to 31.6
6,"CCSc1ccc(NC(=O)c2cccc(CSCCC(=O)O)c2)c(-c2cc(C(=O)NCc3cccc(C(F)(F)F)c3)ccn2)c1 [Example 35, 3-((3-((4-(Ethylthio)-2-(4-((3-(trifluoromethyl)benzyl)carbamoyl)pyridin-2-yl)phenyl)carbamoyl)benzyl)thio)propanoic acid]",1 to 7.94
7,CN(CCN1CCN(S(C)(=O)=O)CC1)Cc1cccc(C(=O)Nc2ccc(N3CCCCC3)cc2-c2cc(C(=O)NCc3cccc(C(F)(F)F)c3)ccn2)c1 [Example 39],1 to 7.94
8,"CN1CCN(CCN(C)Cc2cccc(C(=O)Nc3ccc(N4CCCCC4)cc3-c3cc(C(=O)NCc4cccc(C(F)(F)F)c4)ccn3)c2)CC1 [Example 40, 2-(2-(3-((Methyl(2-(4-methylpiperazin-1-yl)ethyl)amino)methyl)benzamido)-5-(piperidin-1-yl)phenyl)-N-(3-(trifluoromethyl)benzyl)isonicotinamide]",10 to 31.6
9,"CC(=O)N1CCN(CCN(C)Cc2cccc(C(=O)Nc3ccc(N4CCCCC4)cc3-c3cc(C(=O)NCc4ccccc4)ccn3)c2)CC1 [Example 41, 2-(2-(3-(((2-(4-Acetylpiperazin-1-yl)ethyl)(methyl)amino)methyl)benzamido)-5-(piperidin-1-yl)phenyl)-N-benzylisonicotinamide]",10 to 31.6
10,"CC(C)(C)OC(=O)N1CCCN(Cc2cccc(C(=O)Nc3ccc(N4CCCCC4)cc3-c3cc(C(=O)NCc4cccc(C(F)(F)F)c4)ccn3)c2)CC1 [Example 44, tert-Butyl 4-(3-((4-(piperidin-1-yl)-2-(4-((3-(trifluoromethyl)benzyl)carbamoyl)pyridin-2-yl)phenyl)carbamoyl)benzyl)-1,4-diazepane-1-carboxylate]",10 to 31.6
11,"CN1CCCN(Cc2cccc(C(=O)Nc3ccc(N4CCCCC4)cc3-c3cc(C(=O)NCc4cccc(C(F)(F)F)c4)ccn3)c2)CC1 [Example 45, 2-(2-(3-((4-Methyl-1,4-diazepan-1-yl)methyl)benzamido)-5-(piperidin-1-yl)phenyl)-N-(3-(trifluoromethyl)benzyl)isonicotinamide]",10 to 31.6
12,"CC(=O)NC1CCN(Cc2cccc(C(=O)Nc3ccc(N4CCCCC4)cc3-c3cc(C(=O)NCc4cccc(C(F)(F)F)c4)ccn3)c2)CC1 [Example 46, 2-(2-(3-((4-Acetamidopiperidin-1-yl)methyl)benzamido)-5-(piperidin-1-yl)phenyl)-N-(3-(trifluoromethyl)benzyl)isonicotinamide]",10 to 31.6
13,"CC(=O)N1CCCN(Cc2cccc(C(=O)Nc3ccc(N4CCCCC4)cc3-c3cc(C(=O)NCc4cccc(C(F)(F)F)c4)ccn3)c2)CC1 [Example 49, 2-(2-(3-((4-Acetyl-1,4-diazepan-1-yl)methyl)benzamido)-5-(piperidin-1-yl)phenyl)-N-(3-(trifluoromethyl)benzyl)isonicotinamide]",1 to 7.94

# Results, then the compound that gave them:
row,IC50 [µM],SMILES
1,1 to 7.94,"O=C(O)CCSCc1cccc(C(=O)Nc2ccc(N3CC4CCCC4C3)cc2-c2cc(C(=O)NCc3cccc(C(F)(F)F)c3)ccn2)c1 (centres unmarked) [Example 28, 3-((3-((4-(Hexahydrocyclopenta[c]pyrrol-2(1H)-yl)-2-(4-((3-(trifluoromethyl)-benzyl)carbamoyl)pyridin-2-yl)phenyl)carbamoyl)benzyl)thio)propanoic acid]"
2,10 to 31.6,"COCCOc1ccc(NC(=O)c2cccc(CSCCC(=O)O)c2)c(-c2cc(C(=O)NCc3cccc(C(F)(F)F)c3)ccn2)c1 [Example 34, 3-((3-((4-(2-Methoxyethoxy)-2-(4-((3-(trifluoromethyl)benzyl)carbamoyl)pyridin-2-yl)phenyl)carbamoyl)benzyl)thio)propanoic acid]"
3,1 to 7.94,"O=C(O)CCSCc1cccc(C(=O)Nc2ccc(Oc3ccccc3)cc2-c2cc(C(=O)NCc3cccc(C(F)(F)F)c3)ccn2)c1 [Example 36, 3-((3-((4-Phenoxy-2-(4-((3-(trifluoromethyl)benzyl)carbamoyl)pyridin-2-yl)phenyl)carbamoyl)benzyl)thio)propanoic acid]"
4,1 to 7.94,"CC(=O)N1CCN(Cc2cccc(C(=O)Nc3ccc(N4CCCCC4)cc3-c3cc(C(=O)NCc4cccc(C(F)(F)F)c4)ccn3)c2)CC1 [Example 50, 2-(2-(3-((4-Acetylpiperazin-1-yl)methyl)benzamido)-5-(piperidin-1-yl)phenyl)-N-(3-(trifluoromethyl)benzyl)isonicotinamide]"
5,1 to 7.94,"COCCNC(=O)CCN(C)Cc1cccc(C(=O)Nc2ccc(N3CCCCC3)cc2-c2cc(C(=O)NCc3cccc(C(F)(F)F)c3)ccn2)c1 [Example 51, 2-(2-(3-(((3-((2-Methoxyethyl)amino)-3-oxopropyl)(methyl)amino)methyl)benzamido)-5-(piperidin-1-yl)phenyl)-N-(3-(trifluoromethyl)benzyl)isonicotinamide]"
6,1 to 7.94,"CN(Cc1cccc(C(=O)Nc2ccc(N3CCCCC3)cc2-c2cc(C(=O)NCc3cccc(C(F)(F)F)c3)ccn2)n1)C(=O)CN1CCOCC1 [Example 53, 6-((N-Methyl-2-morpholinoacetamido)methyl)-N-(4-(piperidin-1-yl)-2-(4-((3-(trifluoromethyl)benzyl)carbamoyl)pyridin-2-yl)phenyl)picolinamide]"
7,1 to 7.94,"CCN(CC)c1ccc(NC(=O)c2cccc(C(=O)N(C)CCN3CCCN(C(=O)OCCOCCOCCOCCOCCOCCOCCOCCOCCOCCOCCOC)CC3)c2)c(-c2cc(C(=O)N[C@H]3CCCc4ccccc43)ccn2)c1 [Example 199, (S)-2,5,8,11,14,17,20,23,26,29,32-undecaoxatetratriacontan-34-yl 4-(2-(3-((4-(diethylamino)-2-(4-((1,2,3,4-tetrahydronaphthalen-1-yl)carbamoyl)pyridin-2-yl)phenyl)carbamoyl)-N-methylbenzamido)ethyl)-1,4-diazepane-1-carboxylate]"
